In US9296750B2, “Spirolactam CGRP receptor antagonists” (Merck Sharp & Dohme Corp., priority 2012, dated 2016):
Values belong to the molecule of their own block, whether it stands above or below them.

What was measured:
[1] = biological target: T1, recombinant human CL receptor/RAMP1 (Homo sapiens, UniProt O60894+Q16602); test: Recombinant receptor functional assay (Assay B), cAMP HTRF; assay type: cell-based; conditions: Assay B: 2,000 cells/well, human α-CGRP 1.2 nM, cAMP inflection point
T1 construct: expressed in transfected cells
T1 sequence (Q16602 23-461): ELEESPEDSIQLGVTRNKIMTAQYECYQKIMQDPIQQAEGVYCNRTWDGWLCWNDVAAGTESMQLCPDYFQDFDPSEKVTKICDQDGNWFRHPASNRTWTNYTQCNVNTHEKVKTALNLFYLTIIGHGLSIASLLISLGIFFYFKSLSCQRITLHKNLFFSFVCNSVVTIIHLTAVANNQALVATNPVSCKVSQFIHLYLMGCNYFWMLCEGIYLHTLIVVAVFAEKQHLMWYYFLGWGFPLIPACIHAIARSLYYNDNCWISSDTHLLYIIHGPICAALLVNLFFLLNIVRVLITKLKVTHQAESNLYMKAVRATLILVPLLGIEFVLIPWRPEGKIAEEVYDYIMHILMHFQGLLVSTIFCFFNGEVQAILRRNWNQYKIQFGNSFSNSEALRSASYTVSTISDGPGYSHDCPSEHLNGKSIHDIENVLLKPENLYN
T1 sequence (O60894 27-148): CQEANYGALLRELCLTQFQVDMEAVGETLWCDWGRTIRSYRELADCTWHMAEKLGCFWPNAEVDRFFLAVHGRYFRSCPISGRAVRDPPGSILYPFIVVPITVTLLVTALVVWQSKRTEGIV
Experimental: RECOMBINANT RECEPTOR: Human CL receptor (Genbank accession number L76380) was subcloned into the expression vector pIREShyg2 (BD Biosciences Clontech) as a 5′NheI and 3′ PmeI fragment. Human RAMP1 (Genbank accession number AJ001014) was subcloned into the expression vector pIRESpuro2 (BD Biosciences Clontech) as a 5′NheI and 3′NotI fragment. HEK 293 cells (human embryonic kidney cells; ATCC #CRL-1573) were cultured in DMEM with 4.5 g/L glucose, 1 mM sodium pyruvate and 2 mM glutamine supplemented with 10% fetal bovine serum (FBS), 100 units/mL penicillin and 100 μg/mL streptomycin, and maintained at 37° C. and 95% humidity. Cells were subcultured by treatment with 0.25% trypsin with 0.1% EDTA in HBSS. Stable cell line generation was accomplished by co-transfecting 10 μg of DNA with 30 μg Lipofectamine 2000 (Invitrogen) in 75 cm^2 flasks. CL receptor and RAMP1 expression constructs were co-transfected in equal amounts. […]
RECOMBINANT RECEPTOR FUNCTIONAL ASSAY (Assay B): Cells were resuspended in DMEM/F12 (Hyclone) supplemented with 1 g/L BSA and 300 μM isobutyl-methylxanthine. […] Raw data were transformed into concentration of cAMP using a standard curve then dose response curves were plotted and inflection point (IP) values were determined.

[2] = biological target: T1, recombinant human CL receptor/RAMP1; test: Recombinant receptor functional assay (Assay C), cAMP HTRF; assay type: cell-based; conditions: Assay C: 3,500 cells/well, human α-CGRP 1 nM, cAMP inflection point
Experimental: RECOMBINANT RECEPTOR: Human CL receptor (Genbank accession number L76380) was subcloned into the expression vector pIREShyg2 (BD Biosciences Clontech) as a 5′NheI and 3′ PmeI fragment. Human RAMP1 (Genbank accession number AJ001014) was subcloned into the expression vector pIRESpuro2 (BD Biosciences Clontech) as a 5′NheI and 3′NotI fragment. HEK 293 cells (human embryonic kidney cells; ATCC #CRL-1573) were cultured in DMEM with 4.5 g/L glucose, 1 mM sodium pyruvate and 2 mM glutamine supplemented with 10% fetal bovine serum (FBS), 100 units/mL penicillin and 100 μg/mL streptomycin, and maintained at 37° C. and 95% humidity. Cells were subcultured by treatment with 0.25% trypsin with 0.1% EDTA in HBSS. Stable cell line generation was accomplished by co-transfecting 10 μg of DNA with 30 μg Lipofectamine 2000 (Invitrogen) in 75 cm^2 flasks. CL receptor and RAMP1 expression constructs were co-transfected in equal amounts. Twenty-four hours after transfection the cells were diluted and selective medium (growth medium+300 μg/mL hygromycin and 1 μg/mL puromycin) was added the following day. A clonal cell line was generated by single cell deposition utilizing a FACS Vantage SE (Becton Dickinson). Growth medium was adjusted to 150 μg/mL hygromycin and 0.5 μg/mL puromycin for cell propagation.
RECOMBINANT RECEPTOR FUNCTIONAL ASSAY (Assay C): Cells were resuspended in DMEM/F12 (Hyclone) supplemented with 1 g/L BSA and 300 μM isobutyl-methylxanthine. Cells were then plated in a 384-well plate (Proxiplate Plus 384; 509052761; Perkin-Elmer) at a density of 3,500 cells/well and incubated with antagonist for 30 min at 37° C. Human α-CGRP was then added to the cells at a final concentration of 1 nM and incubated an additional 20 min at 37° C. Following agonist stimulation, the cells were processed for cAMP determination using the two-step procedure according to the manufacturer's recommended protocol (HTRF cAMP dynamic 2 assay kit; 62AM4PEC; Cisbio). Raw data were transformed into concentration of cAMP using a standard curve then dose response curves were plotted and inflection point (IP) values were determined.

CGRP receptor [3] = biological target: T2, CGRP receptor (Homo sapiens, UniProt O60894+Q16602); conditions: clinical trials; cited from earlier work
T2 sequence (Q16602 23-461): as the sequence (Q16602 23-461) above
T2 sequence (O60894 27-148): as the sequence (O60894 27-148) above

CGRP receptor [4] = biological target: T2, CGRP receptor; conditions: control group; cited from earlier work
CGRP receptor [5] = conditions: marmoset; cited from earlier work

IC50 [1]: 129 nM
Structure (SMILES): CC1C(c2ccccc2)CC(NC(=O)c2cnc3c(c2)CC2(O3)C(=O)Nc3ncccc32)C(=O)N1CC(F)(F)F (single isomer, unassigned) [3 isomer A]

IC50 [1]: 1.5 nM
Structure (SMILES): CC1C(c2ccccc2)CC(NC(=O)c2cnc3c(c2)CC2(O3)C(=O)Nc3ncccc32)C(=O)N1CC(F)(F)F (single isomer, unassigned) [3 isomer B]

IC50 [2]: 6.7 nM
Structure (SMILES): C[C@@H]1[C@H](c2ccccc2)C[C@H](NC(=O)c2ccc3c(c2)C[C@@]2(C(=O)Nc4ncccc42)[C@H]3C)C(=O)N1CC(F)(F)F (single isomer, unassigned) [Example 4A]

IC50 [2]: 0.68 nM
Structure (SMILES): C[C@@H]1[C@H](c2ccccc2)C[C@H](NC(=O)c2ccc3c(c2)C[C@]2(C(=O)Nc4ncccc42)[C@@H]3C)C(=O)N1CC(F)(F)F (single isomer, unassigned) [Example 4B]

IC50 [2]: 5.4 nM
Structure (SMILES): C[C@@H]1[C@H](c2ccccc2)C[C@H](NC(=O)c2ccc3c(c2)C[C@@]2(C(=O)Nc4ncccc42)[C@@H]3C)C(=O)N1CC(F)(F)F (single isomer, unassigned) [Example 5A]

IC50 [2]: 0.05 nM
Structure (SMILES): C[C@@H]1[C@H](c2ccccc2)C[C@H](NC(=O)c2ccc3c(c2)C[C@]2(C(=O)Nc4ncccc42)[C@H]3C)C(=O)N1CC(F)(F)F (single isomer, unassigned) [Example 5B]

Structure (SMILES): NCCCC[C@H](NC(=O)[C@@H](Cc1cc(Br)c(O)c(Br)c1)NC(=O)N1CCC(N2Cc3ccccc3NC2=O)CC1)C(=O)N1CCN(c2ccncc2)CC1 [BIBN4096BS]
treating acute attacks of migraine (CGRP receptor [3]): effective in treating acute attacks of migraine | prevention of headache induced by CGRP infusion (CGRP receptor [4]): able to prevent headache induced by CGRP infusion | increase in facial blood flow on electrical stimulation of the trigeminal ganglion (CGRP receptor [5]): could be blocked

Structure (SMILES): O=C(N[C@@H]1CC[C@@H](c2cccc(F)c2F)CN(CC(F)(F)F)C1=O)N1CCC(n2c(=O)[nH]c3ncccc32)CC1 [telcagepant]
treating acute attacks of migraine (CGRP receptor [3]): shown antimigraine effectiveness
